# Source: US8580794B2 (AbbVie Inc., priority 2009, dated 2013)
# Molecular target: GST-Bc1-2 (Homo sapiens, UniProt P10415)
# Assay: Time Resolved-Fluorescence Resonance Energy Transfer (TR-FRET) Bcl-2 binding assay with F-Bak peptide probe
# Details: GST-Bcl-2 1 nM, F-Bak probe 100 nM, Tb-anti-GST 1 nM; '<' = below limit of detection; read-out: TR-FRET Bcl-2 Binding Ki
# Description: The samples are then mixed on a shaker for 1 minute and incubated for an additional 3 hours at room temperature. For each assay, the probe/antibody and protein/probe/antibody were included on each assay plate as negative and positive controls, respectively.
# The samples were then mixed on a shaker for 1 minute and incubated for an additional 3 hours at room temperature. For each assay, the probe/antibody and protein/probe/antibody were included on each assay plate as negative and positive controls, respectively.
# GST-Bc1-2, sequence (P10415 whole entry): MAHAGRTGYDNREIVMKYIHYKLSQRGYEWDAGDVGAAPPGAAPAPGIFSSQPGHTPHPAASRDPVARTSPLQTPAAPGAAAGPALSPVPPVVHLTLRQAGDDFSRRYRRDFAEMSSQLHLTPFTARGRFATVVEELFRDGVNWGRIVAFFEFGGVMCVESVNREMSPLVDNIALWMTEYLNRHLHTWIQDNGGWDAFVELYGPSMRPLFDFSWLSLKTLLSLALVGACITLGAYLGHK
row,Structure (SMILES),Ki [nM]
1,"O=C(NS(=O)(=O)c1ccc(NCC2CCOCC2)c([N+](=O)[O-])c1)c1ccc(N2CCN(CC3=C(c4ccc(Cl)cc4)CCC4(CCN(C(CF)CF)CC4)C3)CC2)cc1Oc1cnc2[nH]ccc2c1 [Example 265, 4-(4-{[9-(4-chlorophenyl)-3-(1,3-difluoropropan-2-yl)-3-azaspiro[5.5]undec-8-en-8-yl]methyl}piperazin-1-yl)-N-({3-nitro-4-[(tetrahydro-2H-pyran-4-ylmethyl)amino]phenyl}sulfonyl)-2-(1H-pyrrolo[2,3-b]pyridin-5-yloxy)benzamide]",< 0.01
2,"CC1(C)CCC(CN2CCN(c3ccc(C(=O)NS(=O)(=O)c4ccc(NCC5CCOCC5)c(S(=O)(=O)C(F)(F)F)c4)c(Oc4cnc5[nH]ccc5c4)c3)CC2)=C(c2ccc(Cl)cc2)C1 [Example 17, 4-(4-{[2-(4-chlorophenyl)-4,4-dimethylcyclohex-1-en-1-yl]methyl}piperazin-1-yl)-2-(1H-pyrrolo[2,3-b]pyridin-5-yloxy)-N-({4-[(tetrahydro-2H-pyran-4-ylmethyl)amino]-3-[(trifluoromethyl)sulfonyl]phenyl}sulfonyl)benzamide]",0.09
3,"CC1(C)CCC(CN2CCN(c3ccc(C(=O)NS(=O)(=O)c4ccc(OC[C@H]5CC[C@H](N6CCOCC6)CC5)c(Cl)c4)c(Oc4cnc5[nH]ccc5c4)c3)CC2)=C(c2ccc(Cl)cc2)C1 [Example 303, N-[(3-chloro-4-{[trans-4-(morpholin-4-yl)cyclohexyl]methoxy}phenyl)sulfonyl]-4-(4-{[2-(4-chlorophenyl)-4,4-dimethylcyclohex-1-en-1-yl]methyl}piperazin-1-yl)-2-(1H-pyrrolo[2,3-b]pyridin-5-yloxy)benzamide]",0.044
4,"CC1(C)CCC(CN2CCN(c3ccc(C(=O)NS(=O)(=O)c4ccc(NCC56CC7CC(C5)C(O)C(C7)C6)c([N+](=O)[O-])c4)c(Oc4cnc5[nH]ccc5c4)c3)CC2)=C(c2ccc(Cl)cc2)C1 (centres unmarked) [Example 199, 4-(4-{[2-(4-chlorophenyl)-4,4-dimethylcyclohex-1-en-1-yl]methyl}piperazin-1-yl)-N-{[4-({[(E)-4-hydroxy-1-adamantyl]methyl}amino)-3-nitrophenyl]sulfonyl}-2-(1H-pyrrolo[2,3-b]pyridin-5-yloxy)benzamide]",< 0.01
5,"CC1(C)CCC(CN2CCN(c3ccc(C(=O)NS(=O)(=O)c4ccc(OCC5(F)CCOCC5)c(Cl)c4)c(Oc4cnc5[nH]ccc5c4)c3)CC2)=C(c2ccc(Cl)cc2)C1 [Example 286, N-({3-chloro-4-[(4-fluorotetrahydro-2H-pyran-4-yl)methoxy]phenyl}sulfonyl)-4-(4-{[2-(4-chlorophenyl)-4,4-dimethylcyclohex-1-en-1-yl]methyl}piperazin-1-yl)-2-(1H-pyrrolo[2,3-b]pyridin-5-yloxy)benzamide]",< 0.01
6,"CC1(C)CCC(CN2CCN(c3ccc(C(=O)NS(=O)(=O)c4ccc(NC5CCN(C6CC6)CC5)c([N+](=O)[O-])c4)c(Oc4cnc5[nH]ccc5c4)c3)CC2)=C(c2ccc(Cl)cc2)C1 [Example 98, 4-(4-{[2-(4-chlorophenyl)-4,4-dimethylcyclohex-1-en-1-yl]methyl}piperazin-1-yl)-N-({4-[(1-cyclopropylpiperidin-4-yl)amino]-3-nitrophenyl}sulfonyl)-2-(1H-pyrrolo[2,3-b]pyridin-5-yloxy)benzamide]",< 0.01
7,"CC1(C)CCC(CN2CCN(c3ccc(C(=O)NS(=O)(=O)c4ccc(OCC5(F)CCN(C6COC6)CC5)c([N+](=O)[O-])c4)c(Oc4cnc5[nH]ccc5c4)c3)CC2)=C(c2ccc(Cl)cc2)C1 [Example 167, 4-(4-{[2-(4-chlorophenyl)-4,4-dimethylcyclohex-1-en-1-yl]methyl}piperazin-1-yl)-N-({4-[(4-fluoro-1-oxetan-3-ylpiperidin-4-yl)methoxy]-3-nitrophenyl}sulfonyl)-2-(1H-pyrrolo[2,3-b]pyridin-5-yloxy)benzamide]",< 0.01
8,"CC1(C)CCC(CN2CCN(c3ccc(C(=O)NS(=O)(=O)c4cnc(OCC5COCCO5)c(C#N)c4)c(Oc4cnc5[nH]ccc5c4)c3)CC2)=C(c2ccc(Cl)cc2)C1 (centres unmarked) [Example 49, 4-(4-{[2-(4-chlorophenyl)-4,4-dimethylcyclohex-1-en-1-yl]methyl}piperazin-1-yl)-N-{[5-cyano-6-(1,4-dioxan-2-ylmethoxy)pyridin-3-yl]sulfonyl}-2-(1H-pyrrolo[2,3-b]pyridin-5-yloxy)benzamide]",0.074
9,"COCCOCCN1CCOC(CNc2ccc(S(=O)(=O)NC(=O)c3ccc(N4CCN(CC5=C(c6ccc(Cl)cc6)CC(C)(C)CC5)CC4)cc3Oc3cnc4[nH]ccc4c3)cc2[N+](=O)[O-])C1 (centres unmarked) [Example 213, 4-(4-{[2-(4-chlorophenyl)-4,4-dimethylcyclohex-1-en-1-yl]methyl}piperazin-1-yl)-N-({4-[({4-[2-(2-methoxyethoxy)ethyl]morpholin-2-yl}methyl)amino]-3-nitrophenyl}sulfonyl)-2-(1H-pyrrolo[2,3-b]pyridin-5-yloxy)benzamide]",< 0.01
10,"CC1(C)CCC(CN2CCN(c3ccc(C(=O)NS(=O)(=O)c4ccc(NC[C@H]5CN(C6CC6)CCO5)c([N+](=O)[O-])c4)c(Oc4cnc5[nH]ccc5c4)c3)CC2)=C(c2ccc(Cl)cc2)C1 [Example 327, 4-(4-{[2-(4-chlorophenyl)-4,4-dimethylcyclohex-1-en-1-yl]methyl}piperazin-1-yl)-N-{[4-({[(2S)-4-cyclopropylmorpholin-2-yl]methyl}amino)-3-nitrophenyl]sulfonyl}-2-(1H-pyrrolo[2,3-b]pyridin-5-yloxy)benzamide]",< 0.01
11,"CC1(C)CCC(CN2CCN(c3ccc(C(=O)NS(=O)(=O)c4cnc(OCC5CCN(c6nccs6)CC5)c(Cl)c4)c(Oc4cnc5[nH]ccc5c4)c3)CC2)=C(c2ccc(Cl)cc2)C1 [Example 375, 4-(4-{[2-(4-chlorophenyl)-4,4-dimethylcyclohex-1-en-1-yl]methyl}piperazin-1-yl)-N-[(5-chloro-6-{[1-(1,3-thiazol-2-yl)piperidin-4-yl]methoxy}pyridin-3-yl)sulfonyl]-2-(1H-pyrrolo[2,3-b]pyridin-5-yloxy)benzamide]",0.11
12,"CC1(C)CCC(CN2CCN(c3ccc(C(=O)NS(=O)(=O)c4ccc(NC5CCN(CC(F)(F)F)CC5)c([N+](=O)[O-])c4)c(Oc4cnc5[nH]ccc5c4)c3)CC2)=C(c2ccc(Cl)cc2)C1 [Example 83, 4-(4-{[2-(4-chlorophenyl)-4,4-dimethylcyclohex-1-en-1-yl]methyl}piperazin-1-yl)-N-[(3-nitro-4-{[1-(2,2,2-trifluoroethyl)piperidin-4-yl]amino}phenyl)sulfonyl]-2-(1H-pyrrolo[2,3-b]pyridin-5-yloxy)benzamide]",0.071
13,"CN1CCC[C@H]1C(=O)N1CCC(COc2ccc(S(=O)(=O)NC(=O)c3ccc(N4CCN(CC5=C(c6ccc(Cl)cc6)CC(C)(C)CC5)CC4)cc3Oc3cnc4[nH]ccc4c3)cc2Cl)CC1 [Example 312, N-[(3-chloro-4-{[1-(1-methyl-L-prolyl)piperidin-4-yl]methoxy}phenyl)sulfonyl]-4-(4-{[2-(4-chlorophenyl)-4,4-dimethylcyclohex-1-en-1-yl]methyl}piperazin-1-yl)-2-(1H-pyrrolo[2,3-b]pyridin-5-yloxy)benzamide]",< 0.01

# Same assay, conditions: Table 5, direct comparison Z=N vs Z=C analogs; read-out: Bcl-2 FRET ki
row,Structure (SMILES),Ki [nM]
1,"CC1(C)CCC(CN2CCN(c3ccc(C(=O)NS(=O)(=O)c4ccc(NCC5CCOCC5)c(S(=O)(=O)C(F)(F)F)c4)c(Oc4cnc5[nH]ccc5c4)c3)CC2)=C(c2ccc(Cl)cc2)C1 [Example 17, 4-(4-{[2-(4-chlorophenyl)-4,4-dimethylcyclohex-1-en-1-yl]methyl}piperazin-1-yl)-2-(1H-pyrrolo[2,3-b]pyridin-5-yloxy)-N-({4-[(tetrahydro-2H-pyran-4-ylmethyl)amino]-3-[(trifluoromethyl)sulfonyl]phenyl}sulfonyl)benzamide]",0.09
